Measurements taken from patent publication US11795177B2, “Substituted quinoline analogs as aldehyde dehydrogenase 1A1 (ALDH1A1) inhibitors” (THE UNITED STATES OF AMERICA, AS REPRESENTED BY THE …, priority 2017, dated 2023).
Structures can show the parent of a compound that is named as a salt.

Assays:
ALDH1A1 enzyme = biological target: T1, ALDH1A1 enzyme (Homo sapiens, UniProt P00352); test: ALDH1A1 enzymatic assay (in vitro); type: biochemical; details: ALDH1A1 enzyme 20 nM, NAD+ 1 mM, propionaldehyde 80 μM; read-out: ALDH1A1 IC50
T1 sequence (P00352 1-501): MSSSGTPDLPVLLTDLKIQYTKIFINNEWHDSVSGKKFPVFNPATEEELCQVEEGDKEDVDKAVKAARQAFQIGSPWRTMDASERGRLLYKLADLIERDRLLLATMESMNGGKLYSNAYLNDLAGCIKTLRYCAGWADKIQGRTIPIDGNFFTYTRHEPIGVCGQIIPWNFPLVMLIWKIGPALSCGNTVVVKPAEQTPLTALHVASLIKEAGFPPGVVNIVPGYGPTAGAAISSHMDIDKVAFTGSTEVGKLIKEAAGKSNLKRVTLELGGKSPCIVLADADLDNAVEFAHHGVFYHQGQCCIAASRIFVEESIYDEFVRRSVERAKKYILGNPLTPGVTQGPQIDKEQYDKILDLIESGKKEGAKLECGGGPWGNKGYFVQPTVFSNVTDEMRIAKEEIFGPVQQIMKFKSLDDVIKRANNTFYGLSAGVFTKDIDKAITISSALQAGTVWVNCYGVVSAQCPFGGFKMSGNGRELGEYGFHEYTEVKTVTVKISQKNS
Description: Example 358. ALDH1A1 Enzymatic Assay (In Vitro Assay)
3 μL of ALDH1A1 enzyme (final concentration 20 nM) or assay buffer (100 mM HEPES pH 7.5 with 0.01% Tween 20) were dispensed into a 1,536-well solid-bottom black plate (Greiner Bio One, Monroe, N.C.) followed by pin-tool transfer (23 nL) of candidate inhibitors (final concentration range 968 pM to 57.2 μM) and control (Bay 11-7085, final concentration range 1.31 nM to 2.86 μM). Samples were incubated (RT, protected from light) for 15 minutes followed by a 1 μL substrate addition of NAD^+ and Propionaldehyde (final concentrations of 1 mM and 80 μM, respectively). Plates were centrifuged at 1,000 rpm for 15 seconds, then read in kinetic mode on a ViewLux High-throughput CCD imager (Perkin-Elmer) equipped with standard UV fluorescence optics (340 nm excitation, 450 nm emission) for 10 minutes. The change in fluorescence intensity over the 10-minute reaction period was normalized against no-inhibitor and no-enzyme controls and the resulting percent inhibition data were fitted for biological activity.

MIA PaCa-2 cells = test: MIA PaCa2 cell-based assay (1,536-well high-content imaging ALDEFLUOR assay); parameters: species or system human; details: Homo sapiens, 0.5 h, ALDEFLUOR BAAA substrate 500 nM, 30 minutes
Outline: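 MIA PaCa-2 cells (1,000/well), plated overnight, given BAAA substrate (500 nM) plus Hoechst 33342 (0.5 nM), then compound (16-point, 1.4 nM–47.8 μM final; 0.5% DMSO). After 30 min at 37° C, ALDH activity imaged by high-content microscopy as BAA-retaining (FITC) cells versus Hoechst-stained nuclei.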

SMILES | IC50 (ALDH1A1 enzyme) [µM] | IC50 (MIA PaCa-2 cells) [µM]
COc1ccc2ncc(C(=O)N3CCN(C(=O)C4CC4)CC3)c(N3CCC(C(F)(F)F)CC3)c2c1 [Example 28, (4-(cyclopropanecarbonyl)piperazin-1-yl)(6-methoxy-4-(4-(trifluoromethyl)piperidin-1-yl)quinolin-3-yl)methanone] | 1 to 10 | > 10
C[C@@H]1CN(C(=O)C2CC2)C[C@H](C)N1C(=O)c1cnc2ccc(F)cc2c1N1CCC(C)(C#N)CC1 [Example 240, 1-(3-((2S*,6R*)-4-(cyclopropanecarbonyl)-2,6-dimethylpiperazine-1-carbonyl)-6-fluoroquinolin-4-yl)-4-methylpiperidine-4-carbonitrile] | 1 to 10 | > 10
CC1(C#N)CCN(c2c(C(=O)N3CCN(C(=O)C4CC4)CC3)cnc3cc(F)c(F)cc23)CC1 [Example 126, 1-(3-(4-(cyclopropanecarbonyl)piperazine-1-carbonyl)-6,7-difluoroquinolin-4-yl)-4-methylpiperidine-4-carbonitrile] | < 0.5 | 1 to 10
CCOC(=O)N1CCN(C(=O)c2cnc3cc(OC)ccc3c2N2CCC(C)(C#N)CC2)CC1 [Example 108, Ethyl 4-(4-(4-cyano-4-methylpiperidin-1-yl)-7-methoxyquinoline-3-carbonyl)piperazine-1-carboxylate] | < 0.5 | 1 to 10
O=C(c1cnc2ccc(F)cc2c1N1CCC(O)(c2ccccc2)CC1)N1CCN(C(=O)C2CC2)CC1 [Example 291, (4-(cyclopropanecarbonyl)piperazin-1-yl)(6-fluoro-4-(4-hydroxy-4-phenylpiperidin-1-yl)quinolin-3-yl)methanone] | < 0.5 | > 10
CS(=O)(=O)N1CCN(C(=O)c2cnc3ccc(F)cc3c2N2CCC(C#N)(c3cccs3)CC2)CC1 [Cpd. 356, 1-(6-fluoro-3-(4-(methylsulfonyl)piperazine-1-carbonyl)quinolin-4-yl)-4-(thiophen-2-yl)piperidine-4-carbonitrile] | < 0.5 | < 0.5
COc1cc2ncc(C(=O)N3CCN(C(C)=O)CC3)c(N3CCC(C)(C#N)CC3)c2cc1OC [Example 112, 1-(3-(4-acetylpiperazine-1-carbonyl)-6,7-dimethoxyquinolin-4-yl)-4-methylpiperidine-4-carbonitrile] | < 0.5 | 1 to 10
CC1(C#N)CCN(c2c(C(=O)N3CCC(S(C)(=O)=O)CC3)cnc3cc(F)c(F)cc23)CC1 [Example 190, 1-(6,7-difluoro-3-(4-(methylsulfonyl)piperidine-1-carbonyl)quinolin-4-yl)-4-methylpiperidine-4-carbonitrile] | < 0.5 | 1 to 10
O=C(c1cnc2c(F)cc(F)cc2c1N1CCC2(CC1)OCCO2)N1CCN(S(=O)(=O)N2CCCC2)CC1 [Example 163, (6,8-difluoro-4-(1,4-dioxa-8-azaspiro[4.5]decan-8-yl)quinolin-3-yl)(4-(pyrrolidin-1-ylsulfonyl)piperazin-1-yl)methanone] | < 0.5 | > 10
CC(=O)C1(c2ccccc2)CCN(c2c(C(=O)N3CCC(S(C)(=O)=O)CC3)cnc3ccc(F)cc23)CC1 [Example 273, 1-(1-(6-fluoro-3-(4-(methylsulfonyl)piperidine-1-carbonyl)quinolin-4-yl)-4-phenylpiperidin-4-yl)ethanone] | < 0.5 | < 0.5
CS(=O)(=O)N1CCN(C(=O)c2cnc3ccc(F)cc3c2N2CCN(S(=O)(=O)c3ccccc3)CC2)CC1 [Example 254, (6-fluoro-4-(4-(phenylsulfonyl)piperazin-1-yl)quinolin-3-yl)(4-(methylsulfonyl)piperazin-1-yl)methanone] | < 0.5 | < 0.5
N#CC1(c2ccc(-c3c(C(=O)Nc4cnn(CC(=O)NC5CC5)c4)cnc4ccc(F)cc34)cc2)CC1 [Cpd. 344, 4-(4-(1-cyanocyclopropyl)phenyl)-N-(1-(2-(cyclopropylamino)-2-oxoethyl)-1H-pyrazol-4-yl)-6-fluoroquinoline-3-carboxamide] | < 0.5 | 1 to 10
CN(C)C(=O)Cn1cc(NC(=O)c2cnc3ccc(F)cc3c2N2CCC(C#N)(c3ccccc3)CC2)cn1 [Cpd. 339, 4-(4-cyano-4-phenylpiperidin-1-yl)-N-(1-(2-(dimethylamino)-2-oxoethyl)-1H-pyrazol-4-yl)-6-fluoroquinoline-3-carboxamide] | < 0.5 | < 0.5
CN(C)S(=O)(=O)N1CCN(C(=O)c2cnc3ccsc3c2N2CCC(C#N)(c3ccccc3)CC2)CC1 [Example 287, 4-(7-(4-cyano-4-phenylpiperidin-1-yl)thieno[3,2-b]pyridine-6-carbonyl)-N,N-dimethylpiperazine-1-sulfonamide] | < 0.5 | < 0.5
CN(C)C(=O)N1CCN(C(=O)c2cnc3c(F)cc(F)cc3c2N2CCC3(CC2)OCCO3)CC1 [Example 180, 4-(6,8-difluoro-4-(1,4-dioxa-8-azaspiro[4.5]decan-8-yl)quinoline-3-carbonyl)-N,N-dimethylpiperazine-1-carboxamide] | < 0.5 | 1 to 10
CC1(O)CCN(C(=O)c2cnc3ccc(F)cc3c2N2CCC(C#N)(c3ccccc3)CC2)CC1 [Cpd. 349, 1-(6-fluoro-3-(4-hydroxy-4-methylpiperidine-1-carbonyl)quinolin-4-yl)-4-phenylpiperidine-4-carbonitrile] | < 0.5 | < 0.5
CCOC(=O)N1CCN(C(=O)c2cnc3ccccc3c2N2CCC(C)(C#N)CC2)CC1 [Example 100, Ethyl 4-(4-(4-cyano-4-methylpiperidin-1-yl)quinoline-3-carbonyl)piperazine-1-carboxylate] | 0.5 to 1 | > 10

More lines, now with the values ahead:

IC50 (ALDH1A1 enzyme) [µM] | IC50 (MIA PaCa-2 cells) [µM] | SMILES
< 0.5 | 1 to 10 | CCNC(=O)N1CCN(C(=O)c2cnc3c(F)c(F)c(F)cc3c2N2CCC3(CC2)OCCO3)CC1 [Example 144, N-ethyl-4-(6,7,8-trifluoro-4-(1,4-dioxa-8-azaspiro[4.5]decan-8-yl)quinoline-3-carbonyl)piperazine-1-carboxamide]
< 0.5 | > 10 | CCNC(=O)N1CCN(C(=O)c2cnc3ccc(F)cc3c2N2CCC(C)(C#N)CC2)CC1 [Example 89, 4-(4-(4-cyano-4-methylpiperidin-1-yl)-6-fluoroquinoline-3-carbonyl)-N-ethylpiperazine-1-carboxamide]
< 0.5 | > 10 | CC(C)C(=O)N1CCN(C(=O)c2cnc3ccc(F)cc3c2N2CCC3(CC2)OCCO3)CC1 [Example 49, 1-(4-(6-fluoro-4-(1,4-dioxa-8-azaspiro[4.5]decan-8-yl)quinoline-3-carbonyl)piperazin-1-yl)-2-methylpropan-1-one]
< 0.5 | 1 to 10 | CCNC(=O)N1CCN(C(=O)c2cnc3cc(OC)ccc3c2N2CCC(C)(C#N)CC2)CC1 [Example 107, 4-(4-(4-cyano-4-methylpiperidin-1-yl)-7-methoxyquinoline-3-carbonyl)-N-ethylpiperazine-1-carboxamide]
< 0.5 | > 10 | CCNC(=O)N1CCN(C(=O)c2cnc3ccc(F)cc3c2N2CCC3(CC2)OCCO3)CC1 [Example 56, N-ethyl-4-(6-fluoro-4-(1,4-dioxa-8-azaspiro[4.5]decan-8-yl)quinoline-3-carbonyl)piperazine-1-carboxamide]
< 0.5 | 1 to 10 | N#CC1(O)CCN(C(=O)c2cnc3ccc(F)cc3c2-c2ccc(C3(C#N)CC3)cc2)CC1 [Cpd. 340, 1-(4-(4-(1-cyanocyclopropyl)phenyl)-6-fluoroquinoline-3-carbonyl)-4-hydroxypiperidine-4-carbonitrile]
< 0.5 | 1 to 10 | COc1ccc2ncc(C(=O)N3CCC(OC)CC3)c(N3CCC4(CC3)OCCO4)c2c1 [Example 2, (6-methoxy-4-(1,4-dioxa-8-azaspiro[4.5]decan-8-yl)quinolin-3-yl)(4-methoxypiperidin-1-yl)methanone, TFA]
< 0.5 | 1 to 10 | CCNC(=O)N1CCN(C(=O)c2cnc3cc(OC)ccc3c2N2CCC3(CC2)OCCO3)CC1 [Example 139, N-ethyl-4-(7-methoxy-4-(1,4-dioxa-8-azaspiro[4.5]decan-8-yl)quinoline-3-carbonyl)piperazine-1-carboxamide]
